The subject of test [1] is HCT116 human colorectal carcinoma cells. Nature of the test: CellTiter-Glo assay (cell viability). The format is cell-based. Conditions: HCT-116, 72 h, read-out: CTG IC50. The method, then:
HCT116 human colorectal carcinoma cells were used in these experiments. HCT116 cells were obtained from ATCC. CellTiter-Glo® Luminescent Cell Viability Assay Reagent was obtained from Promega.
About 3,000 cells were seeded into 96-well plate with 100 μL of media (DMEM supplemented with 10% FBS, 100 units penicillin, and […] streptomycin per mL) the day before the experiment. For compound treatment, the master plate was prepared as follows: 100× compound stocks were prepared in a 96-well plate by 1 to 3 serial dilutions of 0.5 mM DMSO stocks. Each master plate contained serial dilution of 8 compounds, including the control compound E7820. […] of 100× compound stock was added to each well of the assay plate to give final concentrations of […]. Each concentration was tested in triplicate. After 3 days, cell viability was determined using CellTiter-Glo Luminescent Cell Viability Assay Reagent following the manufacturer's recommended protocol. Briefly, […] of CellTiter-Glo reagent was added to each well of the assay plate and the contents were mixed for 3 minutes at 600 rpm on a shaker (Thermomixer R). The plate was immediately placed in a plate reader (Synergy 2) and the luminescence signal (0.5 second per well integration time) was determined. IC50 values were calculated using Dotmatics software.
(Cellular ATP, detected with luciferase, serves as a proxy for viable cell number.)

The target in test [2] is T1, DCAF15 (DDA1-DDB1ΔB-DCAF15Δpro) (Homo sapiens, UniProt Q66K64, DEL276-383).
T1 construct: made in house; host or cells: Sf9 (Bac-to-Bac baculovirus)
Description: DCAF15 displacement assay (displacement FRET, probe PT7795). The format is binding. Particulars: displacement of PT7795 (300 nM), compound 0.01 to 100 μM, 18 hours incubation; read-out: DCAF15 displacement IC50. The source says:
(§1) Proteins used for the assays were as follows: Human DDA1 (UniProt:Q9BW61), DDB1 (UniPro: Q16531), and DCAF15 (UniProt: Q66K64) coding sequences were cloned into pFastBac1 vectors and were co-expressed in Sf9 cells using Bac-to-Bac baculovirus expression system (Thermo Fisher Scientific). The expression construct for DCAF15 includes a N-terminal His6-tag to facilitate the purification.
DCAF15 Displacement Assay (Displacement FRET KD)
Synthesis of the probe PT7795 is described in the article.
Binding of PT7795 to DDA1-DDB1AB-DCAF15Δpro was measured by the FRET signal between europium-labeled anti-His antibody (AD0205, Perkin Elmer) that is associated with His-tagged DCAF15 and ALX647 moiety in PT7795. […] After equilibrating for 2-3 hours at 4° C., the plate was removed from the incubator, briefly spun, then read on a Spark 10 (Tecan) at the excitation/emission wavelength of 340 nm/615 nm and 340 nm/665 nm.
Binding of compounds in this disclosure to DCAF15 was measured in a competition by the displacement of PT7795. The concentration of PT7795 was kept at 300 nM while the concentration of a compound was varied from 0.01 to 100 μM. The incubation time was increased to 18 hours for enhanced signal to noise level.
F=Fmin+(Fmax−Fmin)/(1+10^(logIC50−log[Compound])^n) (Equation 2)
The Kds can then be calculated from IC50s using Equation 3 (Cheng-Prusoff equation).

The target of test [3] is T2, DCAF15 RBM39 ternary complex (Homo sapiens, UniProt Q14498+Q66K64, DEL276-383).
T2 construct: Amino acids 150 to 331 of RBM39 were cloned into pGEX4T3; GST (from the pGEX4T3 vector, own knowledge) followed by a TEV cleavage site (N); made in house; host or cells: Sf9 baculovirus (DDB1ΔB/DCAF15); E. coli (RBM39 R1R2)
T2 sequence (Q66K64 with tags, fused parts or gaps DEL276-383): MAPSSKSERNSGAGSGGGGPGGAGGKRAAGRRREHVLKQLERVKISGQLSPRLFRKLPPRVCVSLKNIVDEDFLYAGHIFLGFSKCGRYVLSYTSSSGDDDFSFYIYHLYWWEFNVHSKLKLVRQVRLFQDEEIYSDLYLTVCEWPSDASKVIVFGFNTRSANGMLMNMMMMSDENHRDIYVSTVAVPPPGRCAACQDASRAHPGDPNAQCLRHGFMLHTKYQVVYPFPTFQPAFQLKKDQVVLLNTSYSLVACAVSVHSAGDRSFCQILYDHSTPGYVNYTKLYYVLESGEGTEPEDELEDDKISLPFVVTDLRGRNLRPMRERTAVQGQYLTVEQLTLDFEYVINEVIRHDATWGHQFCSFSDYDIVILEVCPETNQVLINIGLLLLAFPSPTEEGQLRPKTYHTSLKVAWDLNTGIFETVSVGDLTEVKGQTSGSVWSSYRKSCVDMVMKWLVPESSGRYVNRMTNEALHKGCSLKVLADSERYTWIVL
T2 sequence (Q14498 150-331, stated change not applied): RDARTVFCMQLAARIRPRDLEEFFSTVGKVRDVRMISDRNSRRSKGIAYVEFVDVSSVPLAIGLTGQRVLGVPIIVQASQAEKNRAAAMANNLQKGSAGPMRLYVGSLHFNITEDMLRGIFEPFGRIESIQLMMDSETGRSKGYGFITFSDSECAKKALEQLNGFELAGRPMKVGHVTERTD
Nature of the test: DCAF15 RBM39 complex formation assay (FRET). It is filed as biochemical. Conditions: FRET ratio, 20 nM DDB1DB/DCAF15, 50 nM RBM39 R1R2, overnight at 4° C.; read-out: DCAF15 RBM39 ternary complex EC50.
Text: as §1
DCAF15 RBM39 Complex Formation Assay
LANCE Eu-W1024 Anti-6×His and SureLight Allophycocyanin-anti-FLAG antibodies were purchased from Perkin Elmer. Human DDB1DB and His-tagged DCAF15 were co-expressed in baculovirus/sf9 system. […] The His-tagged DCAF15 contains six histidine residues directly preceding the DCAF15 sequence without any linker. An RBM39 fragment containing RRM1 and RRM2 was expressed in E. coli.
A compound of the present disclosure in DMSO (2 μL) was transferred to a 384-well assay plate. Compound was added in 14 points, 3-fold serial dilution (1 μM to 0.6 pico molar) in DMSO. […] FRET assay buffer (25 mM HEPES, pH 7.5, 100 mM NaCl, […], 0.5 mM TCEP, 0.005% Tween-20, 0.2 nM Eu-W1024 Anti-6×His, 50 nM SureLight Allophycocyanin-anti-FLAG, 20 nM DDB1DB/DCAF15, 50 nM RBM39 R1R2) was added and the resulting solution was incubated overnight at 4° C. […] Low signal controls containing no compound and high signal controls containing 10 mM indisulam were measured for each plate.
EC50 values were calculated using Dotmatics template equation for 4-parameter fit.
Results are expressed as % formation using the following equation: […]

Setting [4] is: HCT116 cells, 3 days, CellTiter-Glo luminescence.

pEC50, pIC50: −log10 of the molar value. Like-named read-outs stand apart in the source and are kept apart here.

One may read the pIC50 as −log10 of the IC50, conventionally taken in molar units. Broadly, the pEC50 is the EC50 on a negative log10 scale, so that one unit is a factor of ten.

On to `O=S1(=O)Nc2c(ccc3c(Cl)c[nH]c23)CN1C1CCCCC1` [Compound 4, 7-chloro-3-cyclohexyl-1,3,4,9-tetrahydro-[1,2,6] thiadiazino[4,3-g]indole 2,2-dioxide], for which the pIC50 in test [1] (setting [4]) was 6.03; in test [2] it was 4.24. Besides, the negative logarithm of the EC50 (pEC50) in test [3] is 7.79.

Take `O=S1(=O)Nc2c(cc(Cl)c3c(Cl)c[nH]c23)CN1Cc1cccc(O)c1` [Compound 73, 6,7-dichloro-3-(3-hydroxybenzyl)-1,3,4,9-tetrahydro-[1,2,6] thiadiazino[4,3-g]indole 2,2-dioxide]: the pIC50 was 6.38 in test [1] (setting [4]) and 5.78 in test [2]. Moreover, the pEC50 in test [3] was 8.89.

As to `CN1CCC(CN2Cc3cc(Cl)c4c(Cl)c[nH]c4c3NS2(=O)=O)CC1` [Compound 83, 6,7-dichloro-3-((1-methylpiperidin-4-yl)methyl)-1,3,4,9-tetrahydro-[1,2,6]thiadiazino[4,3-g]indole 2,2-dioxide], the pIC50 is 7.17 in test [1] (setting [4]) and 6.11 in test [2]. The negative logarithm of the EC50 (pEC50) in test [3] was 8.64.

For the compound `CC(c1ccccc1)N1Cc2cc(Cl)c3c(Cl)c[nH]c3c2NS1(=O)=O` (stereo not drawn) [Compound 23, 6,7-dichloro-3-(1-phenylethyl)-1,3,4,9-tetrahydro-[1,2,6] thiadiazino[4,3-g] indole 2,2-dioxide], the figures for the pIC50 in test [1] (setting [4]) and in test [2] were 6.23 and 5.02, respectively. Further, the pEC50 in test [3] is 8.55.

In the case of `Nc1cccc(CN2Cc3cc(Cl)c4c(Cl)c[nH]c4c3NS2(=O)=O)c1` [Compound 76, 3-(3-aminobenzyl)-6,7-dichloro-1,3,4,9-tetrahydro-[1,2,6] thiadiazino[4,3-g]indole 2,2-dioxide], the pIC50 is 6.59 in test [1] (setting [4]) and 6.25 in test [2]. In addition, the pEC50 in test [3] is 8.92.

On to `O=S1(=O)Nc2c(cc(Cl)c3c(Cl)c[nH]c23)CN1Cc1cccc(F)c1` [Compound 75, 6,7-dichloro-3-(3-fluorobenzyl)-1,3,4,9-tetrahydro-[1,2,6] thiadiazino[4,3-g]indole 2,2-dioxide], for which the results for the pIC50 in test [1] (setting [4]) and in test [2] were 6.07 and 5.37, respectively. The pEC50 in test [3] was 8.64.

Take `O=S1(=O)Nc2c(cc(Cl)c3c(Cl)c[nH]c23)CN1Cc1ccnc(Cl)c1` [Compound 63, 6,7-dichloro-3-((2-chloropyridin-4-yl)methyl)-1,3,4,9-tetrahydro-[1,2,6] thiadiazino[4,3-g]indole 2,2-dioxide]: the pIC50 in test [1] (setting [4]) was 6.45; in test [2] it was 6.48. Besides, the pEC50 in test [3] was 9.00.

As for `Cn1cc(CN2Cc3cc(Cl)c4c(Cl)c[nH]c4c3NS2(=O)=O)ccc1=O` [Compound 65, 5-((6,7-dichloro-2,2-dioxido-4,9-dihydro-[1,2,6]thiadiazino[4,3-g]indol-3(1H)-yl)methyl)-1-methylpyridin-2(1H)-one], the pIC50 is 6.31 in test [1] (setting [4]) and 6.03 in test [2]. The pEC50 in test [3] is 8.72.

In the case of `O=S1(=O)Nc2c(cc(Cl)c3c(Cl)c[nH]c23)CN1Cc1cnccc1Cl` [Compound 54, 6,7-dichloro-3-((4-chloropyridin-3-yl)methyl)-1,3,4,9-tetrahydro-[1,2,6] thiadiazino[4,3-g]indole 2,2-dioxide], the pIC50 in test [1] (setting [4]) is 6.89; in test [2], 6.43. In addition, the pEC50 in test [3] was 8.92.

Regarding `O=S1(=O)Nc2c(cc(Cl)c3c(Cl)c[nH]c23)CN1Cc1ccc(Cl)nc1` [Compound 12, 6,7-dichloro-3-((6-chloropyridin-3-yl)methyl)-1,3,4,9-tetrahydro-[1,2,6]thiadiazino[4,3-g]indole 2,2-dioxide], the pIC50 in test [1] (setting [4]) was 6.90; in test [2], 5.96. Also, in test [3], the pEC50 is 9.15.

For `CC(=O)NCCN1Cc2cc(Cl)c3c(Cl)c[nH]c3c2NS1(=O)=O` [Compound 40, N-(2-(6,7-dichloro-2,2-dioxido-4,9-dihydro-[1,2,6]thiadiazino[4,3-g]indol-3(1H)-yl)ethyl) acetamide], the pIC50 is 6.27 in test [1] (setting [4]) and 5.81 in test [2]. The pEC50 in test [3] is 8.80.

In the case of `CCCC1Cc2ccc3c(Cl)c[nH]c3c2NS1(=O)=O` (stereo not drawn) [Compound 10, 7-chloro-3-propyl-1,3,4,9-tetrahydro-[1,2]thiazino[4,3-g]indole 2,2-dioxide], the pIC50 was 5.30 in test [1] (setting [4]) and no more than 4.00 in test [2]. Moreover, the pEC50 in test [3] was 7.79.

In the case of `COCCN1Cc2cc(Cl)c3cc[nH]c3c2NS1(=O)=O` [Compound 2, 6-chloro-3-(2-methoxyethyl)-1,3,4,9-tetrahydro-[1,2,6] thiadiazino[4,3-g]indole 2,2-dioxide], the pIC50 in test [1] (setting [4]) is 5.65; in test [2] it was 4.29. Also, the pEC50 in test [3] was 7.18.

For the compound `O=S1(=O)Nc2c(cc(Cl)c3c(Cl)c[nH]c23)CN1Cc1ccc(F)cc1` [Compound 69, 6,7-dichloro-3-(4-fluorobenzyl)-1,3,4,9-tetrahydro-[1,2,6] thiadiazino[4,3-g]indole 2,2-dioxide], the pIC50 in test [1] (setting [4]) was 5.92; in test [2], 5.12. Moreover, the pEC50 in test [3] is 8.41.

As for `O=S1(=O)Nc2c(cc(Cl)c3c(Cl)c[nH]c23)CN1Cc1cccc(Cl)c1` [Compound 11, 6,7-dichloro-3-(3-chlorobenzyl)-1,3,4,9-tetrahydro-[1,2,6] thiadiazino[4,3-g]indole 2,2-dioxide], the negative-log IC50 (pIC50) in test [1] (setting [4]) is 5.85; in test [2] it was 5.01. The negative-log EC50 (pEC50) in test [3] was 8.55.

For the compound `O=S1(=O)Nc2c(cc(Cl)c3c(Cl)c[nH]c23)CN1CCCC(F)(F)F` [Compound 32, 6,7-dichloro-3-(4,4,4-trifluorobutyl)-1,3,4,9-tetrahydro-[1,2,6] thiadiazino[4,3-g]indole 2,2-dioxide], the pIC50 was 6.57 in test [1] (setting [4]) and 5.39 in test [2]. In addition, the pEC50 in test [3] is 8.72.

As to `O=S1(=O)Nc2c(cc(Cl)c3c(Cl)c[nH]c23)CN1CC1COC1` [Compound 34, 6,7-dichloro-3-(oxetan-3-ylmethyl)-1,3,4,9-tetrahydro-[1,2,6]thiadiazino[4,3-g]indole 2,2-dioxide], the pIC50 in test [1] was 6.90; in test [2] it was 6.16. In test [3], the negative logarithm of the EC50 (pEC50) is 8.74.

As to `O=S1(=O)Nc2c(cc(Cl)c3c(Cl)c[nH]c23)CN1Cc1ccccn1` [Compound 19, 6,7-dichloro-3-(pyridin-2-ylmethyl)-1,3,4,9-tetrahydro-[1,2,6]thiadiazino [4,3-g]indole 2,2-dioxide], the pIC50 in test [1] (setting [4]) was 6.62; in test [2] it was 6.27. The pEC50 in test [3] was 8.80.
